Results published in patent publication US20120128770A1, “TREATMENT OF INSULIN RESISTANCE AND OBESITY BY STIMULATING GLP-1 RELEASE” (Kobenhavns Universitet, priority 2009, published 2012).

Experiments:
tGLP-1 release = assay: Clinical experiment: duodenal bolus in healthy male volunteers, plasma tGLP-1 release; type: in vivo, human; conditions: for plasma tGLP-1 levels during the first 25 minutes: duodenal bolus, compared to vehicle
Experimental: FIG. 4. Stimulation of tGLP-1 release by 2OG in the intestinal lumen. Eight healthy male volunteers were given enteral feeding by duodenal tube. Each volunteer was given three different liquid meals (two grams of 2OG(▴), 1.54 grams of oleic (∘) acid or vehicle (⋄)) on three different days. The vehicle consisted of 50 ml glycerol plus 5 ml ethanol. Data are mean values±SEM and were analysed by repeated measurements ANOVA.
8 healthy male volunteers (20-30 years, BMI 20-25) that had fasted 10 hours, were given enteral feeding by duodenal tube. The liquid meals were prepared 5 min before use. Each volunteer was given three different liquid meals (clear solution, bolus 55 ml) on three different days (A-C).
Day A: 2OG (2 g) in 50 ml glycerol+5 ml ethanol Day B: oleic acid (1.54 g) in 50 ml glycerol+5 ml ethanol Day C: 50 ml glycerol+5 ml ethanol Blood Samples were collected at the following points (min): −15, −10, 0, 10, 20, 30, 40, 50, 60, 75, 90, 120, 150, 180, 240.
In serum was measured: insulin and C-peptide
In plasma was measured: glucose, tGLP-1, Cholecystokinin (CCK).
The methods for these assays have been described previously (ref 18).

human GPR119 receptor [1] = biological target: T1, human GPR119 receptor (Homo sapiens, UniProt Q8TDV5); assay: Ligand-induced GPR119 activation, cAMP formation (HTRF) in CHO-K1 cells; type: cell-based; design: expressed in transfected cells; conditions: for cAMP formation / GPR119 activation in words: CHO-K1 cells transiently expressing GPR119, FIG. 1; for EC50: CHO-K1 cells, cAMP formation
T1 sequence (Q8TDV5 1-335): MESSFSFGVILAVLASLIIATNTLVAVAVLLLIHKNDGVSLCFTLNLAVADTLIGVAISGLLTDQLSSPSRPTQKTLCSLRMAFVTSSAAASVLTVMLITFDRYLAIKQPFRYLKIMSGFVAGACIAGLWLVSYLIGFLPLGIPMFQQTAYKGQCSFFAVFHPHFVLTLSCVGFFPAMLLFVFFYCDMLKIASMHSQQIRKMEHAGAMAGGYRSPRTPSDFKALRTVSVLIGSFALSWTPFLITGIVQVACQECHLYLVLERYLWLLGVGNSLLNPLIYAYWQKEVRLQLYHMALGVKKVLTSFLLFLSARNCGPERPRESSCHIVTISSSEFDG
Experimental: FIG. 1. Ligand-induced GPR119 activation in CHO-K1 cells. Five different ligands were tested. Oleoylethanolamide, H-1: 2-oleoylglycerol, H-2: 1-oleoyleglycerol, H-4: oleic acid, and H-5: 2-palmitoylglycerol. cAMP was measured by a HTRF kit from CisBio International. Three experiments (each in duplicate) were performed using oleoylethanolamide as positive control in each experiment. All dose-response curves were normalized to the efficacy of OEA in each experiment, and the data are shown as ligand-induced activation above basal receptor activity.
GPR119 receptor signalling experiments were carried out using CHO-K1 cells transiently transfected with the human GPR119 receptor. CHO-K1 cells expressing GPR119 grown to mid-log phase prior to the test in culture media without antibiotics and supplemented with doxycycine (final concentration 200 ng/ml) were detached be gentle flushing with PBS-EDTA (5 mM EDTA), recovered by centrifugation and resuspended in Ham's F12 culture medium containing 10% FCS and no antibiotic. Cells were counted, centrifuged in a 50 ml Falcon tube and resuspended in KRH-IBMX (5 mM KCL, 1.25 mM MgSO4, 124 mM NaCl, 25 mM HEPES, 13.3 mM glucose, 1.25 mM KH2PO4, 1.45 mM CaCl2, 0.6 mg/ml BSA and […] Phenol red, pH 7.4) at a concentration of 6.25×10^5 cells/ml. Cells were then filled in 96 well plates (total vol 24 μl/well) and stimulated with agonists in serial dilution for 30 min. cAMP was then measured using a HTRF kit from CisBio International (cat no. 62AM2PEB). Determinations were made in duplicate.

human GPR119 receptor [2] = biological target: T1, human GPR119 receptor; assay: Ligand-induced GPR119 activation, cAMP accumulation (3H-adenine) in transiently transfected COS-7 cells; type: cell-based; design: expressed in transfected cells; host or cells: COS-7
Experimental: Three different ligands were tested: (C) oleoylethanolamide (OEA), (A) 2-oleoylglycerol (2OG), and (D) oleic acid, by measurement of cAMP accumulation. Briefly, COS-7 cells were transiently transfected with the human GPR119 receptor (squares) or empty vector (negative control, triangle). The cells were seeded in plates one day after transfection, incubated for 24 hours with 2 μCi/ml of ^3H-adenine. At the day of the cAMP measurement, the cells incubated with the ligands for 25 minutes, lysed, and the cAMP purified using Dowex and alumina columns. The data represent sum-curves of three independent experiments (n=3), performed in duplicates. All dose-response curves were normalized to the efficacy of OEA in each experiment, and the data are shown as ligand-induced activation above basal receptor activity.
Briefly, COS-7 cells were transiently transfected with human GPR119 receptor (squares) or empty vector (negative control, triangle). The cells were seeded in plates one day after transfection, incubated for 24 hours with 2 μCi/ml of ^3H-adenine. At the day of the cAMP measurement, the cells were incubated with the ligand for 25 minutes, lysed, and the cAMP purified using Dowex and alumina columns. The data represent sum-curves of the 7 independent experiments, performed in duplicates.
GPR119 receptor signalling experiments were carried out using COS-7 cells transiently transfected with the human GPR119 receptor. The COS-7 cells were grown at 10% CO2 and 37° C. in Dulbecco's modified Eagle's medium with glutamax (Gibco, Cat. No 21885-025) adjusted with 10% fetal bovine serum (FBS), 180 u/ml penicillin and 45 ug/mL streptomycin (PenStrep). Transfection of the COS-7 cells was performed by the calcium phosphate precipitation method. The cells were seeded in 24 well plates (1.5×10^5 cells/well) one day after transfection, and were subsequently incubated for 24 hours with 2 μCi/ml of 3H-adenine in 0.5 ml growth medium per well. At the day of the cAMP measurement, the cells were washed twice in HBS buffer (25 mM Hepes, pH 7.2, supplemented with 0.75 mM NaH2PO4, 140 mM NaCl and 0.05% (w/v) bovine serum albumin), and 0.5 ml HBS buffer supplemented with 1 mM of the phosphodiesterase inhibitor IBMX (3-isobutyl-1-methylxanthine, Sigma chemicals Co., St. Louis, Mo., USA) was added together with increasing concentrations of the different compounds (2OG, 1OG, OEA, oleic acid or 2-PG). After 25 min incubation at 37° C., the cells were placed on ice, the medium was removed, and the cells were lysed in 1 ml of 5% (w/v) trichloroacetic acid, supplemented with 0.1 mM cAMP and 0.1 mM ATP for 30 min. The lysate mixtures were loaded onto Dowex columns (Bio-Rad, Hercules, Calif., USA), which were washed with 2 ml of water and placed onto the top of alumina columns (Sigma) and washed again with 10 ml of water. The alumina columns were eluted with 6 ml of 0.1 M imidazole into 15 ml scintillation fluid (Highsafe III). Columns were re-used up to 15 times. Dowex columns were regenerated by adding 10 ml of 2 N HCl followed by 10 ml of water; the alumina columns were regenerated by adding 2 ml of 1 M imidazole, 10 ml of 0.1 M imidazole, and finally 5 ml of water. Determinations were made in duplicate.

[3] = experiment 1, read-out: EC-values for activation of GPR119, CHO-exp-1
[4] = experiment 2, read-out: EC-values for activation of GPR119, CHO-exp-2
[5] = COS-7 cells, cAMP formation, n = 3, read-out: EC-values for activation of GPR119, COS-cells (n = 3)
[6] = transiently transfected COS-7 cells, Table 2, read-out: EC50 for activation of GPR119
[7] = experiment 3, read-out: EC-values for activation of GPR119, CHO-exp-3

Structure (SMILES)	cAMP formation / GPR119 activation in words (human GPR119 receptor [1])	EC50 (human GPR119 receptor [1]; [3])	EC50 (human GPR119 receptor [1]; [4])	EC50 (human GPR119 receptor [2]; [5])	GPR119 agonism (efficacy normalized to OEA) (human GPR119 receptor [2]; cAMP formation, COS-7 cells (also CHO-K1))	EC50 (human GPR119 receptor [2]; [6])	EC50 (human GPR119 receptor [1]; [7])	plasma cholecystokinin levels (tGLP-1 release; comparison between groups, data not shown)	plasma tGLP-1 levels during the first 25 minutes (tGLP-1 release; fasted volunteers)	incremental area under the curve (iAUC) of tGLP-1 for the first 25 min (tGLP-1 release; healthy male volunteers, duodenal tube, 2 g 2OG or 1.54 g oleic acid in 50 ml glycerol + 5 ml ethanol, mean±SEM)	plasma levels of glucose (tGLP-1 release; increase after 25 min in all three groups, comparison between groups, data not shown)	insulin or c-peptide levels (tGLP-1 release; serum, fasted volunteers, data not shown)
CCCCCCCC/C=C\CCCCCCCC(=O)OC(CO)CO [2-Oleoylglycerol, 2-oleoylglycerol]	increase cAMP formation	1.55 µM	1.12 µM	2.8 µM	full agonist	4.2 µM	–	no difference	significant increased levels of tGLP-1	0.07±0.02 nM×25 min	no difference between groups	no effect
CCCCCCCC/C=C\CCCCCCCCOC(CO)CO [2OG-ether]	–	–	–	–	–	7.9 µM	–	–	–	–	–	–

Now from value to molecule, other results behind:

cAMP formation / GPR119 activation in words (human GPR119 receptor [1])	EC50 (human GPR119 receptor [1]; [3])	EC50 (human GPR119 receptor [1]; [4])	EC50 (human GPR119 receptor [2]; [5])	GPR119 agonism (efficacy normalized to OEA) (human GPR119 receptor [2]; cAMP formation, COS-7 cells (also CHO-K1))	EC50 (human GPR119 receptor [2]; [6])	EC50 (human GPR119 receptor [1]; [7])	Structure (SMILES)	plasma cholecystokinin levels (tGLP-1 release; comparison between groups, data not shown)	plasma tGLP-1 levels during the first 25 minutes (tGLP-1 release; fasted volunteers)	incremental area under the curve (iAUC) of tGLP-1 for the first 25 min (tGLP-1 release; healthy male volunteers, duodenal tube, 2 g 2OG or 1.54 g oleic acid in 50 ml glycerol + 5 ml ethanol, mean±SEM)	plasma levels of glucose (tGLP-1 release; increase after 25 min in all three groups, comparison between groups, data not shown)	insulin or c-peptide levels (tGLP-1 release; serum, fasted volunteers, data not shown)
activator of GPR119	–	–	–	–	> 30 µM	–	CCCCCCCCCCCCCCCC(=O)OC(CO)CO [2-palmitolyglycerol (2PG), 2-palmitoylglycerol]	–	–	–	–	–
–	1.43 µM	4.65 µM	1.4 µM	–	–	1.67 µM	CCCCCCCC/C=C\CCCCCCCC(=O)NCCO [Oleoylethanolamide, oleoylethanolamide, reference compound]	–	–	–	–	–
–	–	–	32.6 µM	–	> 30 µM	> 30 µM	CCCCCCCC/C=C\CCCCCCCC(=O)O [oleic acid, reference compound]	–	did not increase plasma levels of GLP-1	–	–	–
